Test results reported in patent US20040214782A1, “Treatment or prevention of coccidiosis” (priority 1999, published 2004).

How the values were obtained:
[1] = tested on: bovine coccidia (Eimeria bovis ~90% and Eimeria auburnenis ~10%); test: Example 1: coccidiosis in Eimeria challenged calves, treated once clinical disease and oocyst shedding had begun; assay type: in vivo; details: for Mortality Rates: 8 calves, 21 day study; for mean daily attitude scores compared to the saline controls / mean daily fecal consistency scores compared to the saline treated calves / number of animals that ceased oocyst shedding compared to the saline treated calves: amprolium oral SIDX5; for calves that died due to coccidiosis: deaths within 24 hours of dosing; for number of animals that ceased oocyst shedding compared to the saline treated calves: from day 6 post-dosing, Formula II 5 and 2.5 mg/kg
Text: Administration of an azalide macrolide antibiotic according to the invention was compared with administration of amprolium, a commercially available agent, and saline control solution, in preventing full development of coccidiosis in Eimeria challenged calves.
Eighty naive calves weighing approximately 110-125 kg were housed in twenty holding pens (4 animals/pen) 16 days prior to study initiation. […] The calves were acclimated in order to facilitate coccidial exposure and allow time for clinical signs to develop. On day 14, with no signs of naturally occurring coccidiosis in the calves, each calf was challenged orally with a mixed culture of bovine coccidia (Eimeria bovis˜90% and Eimeria auburnenis ˜10%). Calves were each also challenged orally with 1.25×10^7 oocysts and observed for signs of clinical disease. On day 23 post-challenge, calves began to show signs of clinical disease and fecal samples were taken to determine oocyst shedding.
Calves were randomly allotted to one of six treatment groups. They were weighed at allotment and treatments administered subcutaneously in the pre-scapular region of the neck. Amprolium was administered by drench dosing (SIDX5) beginning on the day of allotment.
Rectal temperatures were determined and recorded at approximately the same time each day for the 21 day duration of the study. Attitude, hydration and fecal consistency scores were evaluated daily. Daily fecal samples were taken for qualitative analysis of the shedding of oocysts. Mortalities were necropsied and gross findings were recorded.
At termination of the experiment, surviving animals were weighed, euthanized, and post-mortem examinations conducted.

[2] = tested on: Eimeria culture (93% E bovis, 4% E. auburnenis and 3% E. zuernii); test: Example 2: prevention of coccidiosis in Eimeria challenged calves, treated day 10 post-challenge; assay type: in vivo; details: for clinical responses compared to saline treated animals: conclusion of Example 2; for oocyst shedding compared with the saline controls: days 19-28 post-infection; for oocyst shedding compared with the saline controls / mean daily attitude scores compared to the saline controls / mean daily fecal consistency scores compared with the saline treated calves / mean daily hydration scores compared to the saline treated calves: tilmicosin 10 mg/kg SC once, amprolium 10 mg/kg oral 5 days; for calves that died due to coccidiosis: deaths on day 23 and day 28 post-infection; for mean daily attitude scores compared to the saline controls / mean daily fecal consistency scores compared with the saline treated calves: p≦0.05; for Mortality Rates: 10 calves, 28 day study
Text: Administration of amprolium was compared with tilmicosin, a commercially available macrolide antibiotic, in the prevention of coccidiosis in Eimeria challenged calves.
Sixty naive calves were housed in five holding pens (12 animals/pen). Calves were held 7 days prior to challenge in order to acclimate to the facility. On days −6, −4, and −2 pre-challenge fecal samples were obtained for semi-quantitative oocyst counts. On day −4 pre-challenge, oocysts were speciated if present. On day 0 calves were inoculated orally with the Eimeria culture. Temperatures were determined and recorded at approximately the same time each day for the duration of the study. Attitude, hydration and fecal consistency scores were evaluated daily. Post-challenge, fecal samples were collected on days 2, 4, 6, 8 and 10. Oocysts were speciated on day 10 post-challenge.
On day 10 post-challenge, each of fifty animals was randomly allotted to one of five treatment groups. Agents were either administered subcutaneously in the pre-scapular region of the neck or drench dosed orally.
Post-treatment, fecal samples were taken for semi-quantitative analysis of the shedding of coccidia oocysts on days 12, 14, 16 and 18. Beginning on day 19 and continuing through day 28, daily fecal samples were evaluated for semi-quantitative counts. Speciation of shed oocysts was performed on days 19-21, 23, 26 and 28.
Calves dying during the course of the study or euthanized due to a moribund condition associated with clinical coccidiosis were considered mortalities. Mortalities were necropsied and gross findings were recorded. At study termination (day 28), all remaining animals were weighed, euthanized, and post mortem examinations conducted.
Description of Disease Outbreak—Calves were inoculated orally with 2 ml of a coccidia challenge containing 125,000 sporulated oocysts with a species percent count of 93% E bovis, 4% E. auburnenis and 3% E. zuernii coccidia oocysts. At 19 days post-challenge, oocyst shedding was detected.

[3] = Formula II 5 and 2.5 mg/kg SC once, p>0.05
[4] = amprolium (Corid 20% soluble powder) oral drench SIDX5

| SMILES | mean daily attitude scores compared to the saline controls [1, 3] | mean daily fecal consistency scores compared to the saline treated calves [1, 3] | clinical responses (clinical scores, weight gain and oocyst shedding) compared to the saline control group ([1]; conclusion of Example 1) | calves that died due to coccidiosis ([1]; azalide at 5 and 2.5 mg/kg) | number of animals that ceased oocyst shedding compared to the saline treated calves ([1]; p>0.05) | 21 day average daily weight gain relative to saline [2] | clinical responses compared to saline treated animals [2] | oocyst shedding compared with the saline controls [2] | calves that died due to coccidiosis [2] | mean daily attitude scores compared to the saline controls [2] | mean daily fecal consistency scores compared with the saline treated calves [2] | mean daily hydration scores compared to the saline treated calves [2] | further results |
| --- | --- | --- | --- | --- | --- | --- | --- | --- | --- | --- | --- | --- | --- |
| CCCN(C)C[C@]1(O)[C@H](C)O[C@@H](O[C@H]2[C@H](C)[C@@H](O[C@@H]3O[C@H](C)C[C@H](N(C)C)[C@H]3O)[C@@](C)(O)C[C@@H](C)CN[C@H](C)[C@@H](O)[C@](C)(O)[C@@H](CC)OC(=O)[C@@H]2C)C[C@@]1(C)OC [Compound of Formula II] | significant reductions | statistically significant reductions | improved clinical responses | no mortalities | significant increase | – | – | – | – | – | – | – | 21 Day Average Daily Gain ([1]; 2.5 mg/kg, SIDX1, SC): 1.03 kg; Proportion of infected calves that ceased oocyst shedding 6 days post-treatment ([1]; 2.5 mg/kg, SIDX1, SC): 7/8 (88%); Mortality Rates ([1]; 2.5 mg/kg, SIDX1, SC): 0/8 (0%); 21 Day Average Daily Gain ([1]; 5 mg/kg, SIDX1, SC): 0.79 kg; Proportion of infected calves that ceased oocyst shedding 6 days post-treatment ([1]; 5 mg/kg, SIDX1, SC): 7/8 (88%); Mortality Rates ([1]; 5 mg/kg, SIDX1, SC): 0/8 (0%); mean daily hydration scores compared to the saline treated calves [1, 3]: statistically significant reductions; 21 day weight gain compared to the saline controls ([1]; azalide at 5 and 2.5 mg/kg): Numerical increases in weight gain; efficacy relative to amprolium ([1]; conclusion of Example 1, less complicated dosing regimen): comparable to that of amprolium |
| CC[C@H]1OC(=O)C[C@@H](O)[C@H](C)[C@@H](O[C@@H]2O[C@H](C)[C@@H](O)[C@H](N(C)C)[C@H]2O)[C@@H](CCN2C[C@H](C)C[C@H](C)C2)C[C@@H](C)C(=O)/C=C/C(C)=C/[C@@H]1CO[C@@H]1O[C@H](C)[C@@H](O)[C@@H](OC)[C@H]1OC [Tilmicosin, tilmicosin] | – | – | – | – | – | responded similarly | improved clinical responses | decreased oocyst shedding | Two animals died | significant reductions | statistically significant reductions | reductions | 21 Day Average Daily Gain ([2]; tilmicosin 10 mg/kg SIDX1, SC): 0.21 kg; Mortality Rates ([2]; tilmicosin 10 mg/kg SIDX1, SC): 2/10 (20%) |
| CCCc1ncc(C[n+]2ccccc2C)c(N)n1 [Amprolium, amprolium] | significant reductions | statistically significant reductions | improved clinical responses | one | significant increase | Numerical increases in weight gain | improved clinical responses | decreased oocyst shedding | One animal | significant reductions | statistically significant reductions | reductions | 21 Day Average Daily Gain [1, 4]: 0.75 kg; Proportion of infected calves that ceased oocyst shedding 6 days post-treatment [1, 4]: 7/7 (100%); Mortality Rates [1, 4]: 1/8 (13%); 21 Day Average Daily Gain ([2]; amprolium 10 mg/kg, 5 days drench dosing): 0.60 kg; Mortality Rates ([2]; amprolium (Corid 9.6% Oral Solution) 10 mg/kg, 5 days drench dosing): 1/10 (10%) |
